In this assay the test system is erythemic response (ultraviolet-induced erythema). The assay is described as follows: UV-induced erythemic response inhibition in guinea pigs, topical (modification of the method of Winder). Format: in vivo, Albino guinea pigs. As to conditions: dose 100 mcg./12 cm.^2, in ethanol, weighted scores 1.0-2.5 hours. On the procedure:
A modification of the method of Winder was used to measure the anti-inflammatory activities of the compounds employed in the method of the present invention; see C. V. Winder, et al., Arch. Int. Pharmacodyn., 116, 261 (1958). Albino guinea pigs of either sex, weighing 225-300 grams, were shaved on the back and chemically depilated (Nair® Lotion Hair Remover, Carter Products, N.Y., N.Y.) 18-20 hours before exposure to ultraviolet light. The animals, in groups of four and bearing identifying ear tags, were treated by applying to an area of skin of about 12 cm.^2 a solution of test compound dissolved in 0.1 cc. of ethanol. The control treatment consisted of administering only the drug vehicle, ethanol, to a group of four animals. Groups of four animals each were given different treatment levels of test compound to obtain dose responses. Random order and blind administration of the test compounds were employed; drug idenfication was not made until after all animals were graded. Immediately prior to drug application, the animals were exposed in groups of four to a high-intensity ultraviolet light for a measured period of time (usually 4-7 seconds). The ultraviolet light source, a Hanovia Lamp (Kroymayer-Model 10), was placed in contact with the skin of the animal's back. A gummed notebook paper reinforcement was affixed to the lamp lens to provide an unexposed area of contrast for grading the erythema. Beginning one hour after exposure and thereafter at half-hour intervals for another 1 1/2 hours, the degree of resulting erythema was graded by an arbiturary scoring system based upon the degree of contrast and redness formed. […]
Total scores from each treatment group of four guinea pigs were prepared to the control treatment, and the percent inhibition was calculated as follows: [formula]
A dose-response graph was obtained by plotting dose versus percent inhibition, the points representing the average of each treatment group of four guinea pigs. […] The plotted or calculated ED50 for the particular compound tested, where available, is given in the last column of Table I.
For `COc1ccc(-c2nnc(SCc3ccccc3)nc2-c2ccc(OC)cc2)cc1` [CH2 C6 H5 S 1 OCH3 OCH3, 3-benzylthio-5,6-bis(4-methoxyphenyl)-1,2,4-triazine], the “% Inhibition compared with control (erythemic response)” value (from here on “% Inhibition compared with control”) was 49%.

On to `COc1ccc(-c2nnc(SC(C)C)nc2-c2ccc(OC)cc2)cc1` [CH(CH3)2 S 1 OCH3 OCH3, 3-isopropylthio-5,6-bis(4-methoxyphenyl)-1,2,4-triazine], for which the “% Inhibition compared with control” value is 35%.

Turning to `COc1ccc(-c2ncnnc2-c2ccc(OC)cc2)cc1` [H -- -- OCH3 OCH3, 5,6-bis(4-methoxyphenyl)-1,2,4-triazine], the “% Inhibition compared with control” value is recorded as 53%.

Values taken from patent US4021553A, “5,6-Diaryl-1,2,4-triazines as topically-active anti-inflammatory agents” (Eli Lilly and Company, priority 1976, dated 1977).
